# Measured values from US12612412B2, “Antiviral heterocyclic compounds” (Enanta Pharmaceuticals, Inc., priority 2021, dated 2026).
# Where two headings read alike, the source gives them in different places.
# How the values were obtained:
# [1] = tested on: HMPV clinical isolate TN/1501/A1; assay: HMPV antiviral assay Method-B (clinical isolate TN/1501/A1 in LLC-MK2 cells, ATP-Lite readout); format: cell-based, Human metapneumovirus (HMPV); settings: human metapneumovirus, LLC-MK2, 144 h, hMPV WT1501 (clinical isolate TN/1501/A1), 6 days
# Procedure, shortened: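 EC50 derived by four-parameter logistic fit of percent cell health, measured by ATP-Lite luminescence and normalised to virus-only and uninfected-cell controls. Compounds run in duplicate from 10 μM top, 3-fold, 10 points. Infection: LLC-MK2 cells, MOI 0.014, 2 μg/mL final TPCK-trypsin, serum-free, 6 days at 37° C.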
# [2] = tested on: genotype A, "Long" strain RSV; assay: RSV-A assay (CPE protection in Hep-2 cells, ATPlite readout); format: cell-based, Human respiratory syncytial virus (HRSV); settings: human respiratory syncytial virus, MOI 0.1, CPE protection
# Procedure, shortened: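 Hep-2, 8,000 cells/well, MOI 0.1 (PFU- or TCID50-based); 2-fold compound series, duplicates; 5 d incubation; ATPlite luminescence readout; EC50.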
# [3] = genotype A “Long” strain RSV, read-out: Human RSV-A (“Long”)
# [4] = RSV-A Long strain, read-out: Human RSV-A (“Long”) EC50
SMILES,EC50 [1],"EC50 [2, 3]","EC50 [2, 4]"
COc1cc(C(=O)NC[C@](O)(c2cc3c(c(-c4ccc(F)cc4)n2)OC[C@]3(C)C(N)=O)C2(F)CC2)cc2sc(C)nc12 [Example 724],< 500 nM,< 200 nM,–
C[C@]1(C(N)=O)COc2c(-c3ccc4c(c3)OC(F)(F)O4)nc([C@@](O)(CNC(=O)c3cc(Cl)c4nn(C5CC5)cc4c3)C3CC3)c(F)c21 [Example 858],< 500 nM,–,< 200 nM
COc1cc(C(=O)NC[C@](O)(c2cc3c(c(-c4ccc(F)c(Cl)c4)n2)OC[C@@]3(C(N)=O)C(F)F)C(F)(F)F)cc2cc(Cl)c(C)nc12 [Example 1005],< 500 nM,–,< 200 nM
COc1cc(C(=O)NC[C@](O)(c2cc3c(c(-c4ccc5c(c4)OC(F)(F)O5)n2)OC[C@]3(C(N)=O)C(F)F)C2CC2)cc2cn(C3CC3)nc12 [Example 1010],> 500 nM,–,> 200 nM
COc1cc(C(=O)NC[C@](O)(c2cc3c(c(-c4ccc(F)cc4Cl)n2)OC[C@]3(C)C(N)=O)C(F)(F)F)cc2cc(C(F)(F)F)cnc12 [Example 516],> 500 nM,< 200 nM,–
COc1cc(C(=O)NC[C@@](O)(c2cc3c(c(-c4ccc(OC(F)F)c(F)c4)n2)OC[C@]3(C)C(N)=O)C(F)(F)F)cc2cn(C3CC3)nc12 [Example 919],> 500 nM,–,> 200 nM
Cc1cnc2c(OC(F)F)cc(C(=O)NC[C@](O)(c3cc4c(c(-c5ccc(F)cc5)n3)OC[C@]4(C)C(N)=O)C3CC3)cc2c1 [Example 495],< 500 nM,< 200 nM,–
Cc1cnc2c(Cl)cc(C(=O)NC[C@](O)(c3cc4c(c(-c5ccc(F)c(F)c5F)n3)OC[C@]4(C)C(N)=O)C3CC3)cc2c1 [Example 531],< 500 nM,< 200 nM,–
COc1cc(C(=O)NC[C@](O)(c2cc3c(c(-c4ccc5c(c4)OC(F)(F)O5)n2)OC[C@]3(C)C(N)=O)C(F)(F)F)cc2cc(C3CC3)nnc12 [Example 765],< 500 nM,< 200 nM,–
COc1cc(C(=O)NC[C@](O)(c2cc3c(c(-c4ccc(F)c(F)c4F)n2)OC[C@]3(C)C(N)=O)C2(F)CC2)cc2cn(C(F)F)nc12 [Example 744],< 500 nM,< 200 nM,–
COc1cc(C(=O)NC[C@](O)(c2cc3c(c(-c4ccc(F)c(F)c4Cl)n2)OC[C@]3(C)C(N)=O)C2CC2)cc2cn(C(F)F)nc12 [Example 563],< 500 nM,< 200 nM,–
Cc1cnc2c(OCC(F)F)cc(C(=O)NC[C@](O)(c3cc4c(c(-c5ccc(F)c(Cl)c5)n3)OC[C@]4(C)C(N)=O)C(F)(F)F)cc2c1 [Example 497],< 500 nM,< 200 nM,–
Cc1nc2c(OC3CC3)cc(C(=O)NC[C@](O)(c3cc4c(c(-c5ccc(F)cc5)n3)OC[C@]4(C)C(N)=O)C3CC3)cc2cc1Cl [Example 637],< 500 nM,< 200 nM,–
COc1cc(C(=O)NC[C@](O)(c2cc3c(c(-c4ccc(OC(F)(F)F)c(Cl)c4)n2)OC[C@]3(C)C(N)=O)C(F)(F)F)cc2cn(C3CC3)nc12 [Example 983],> 500 nM,–,< 200 nM
COc1cc(C(=O)NC[C@](O)(c2cc3c(c(-c4csc5c(F)cccc45)n2)OC[C@]3(C)C(N)=O)C(F)(F)F)cc2cc(C3CC3)nn12 [Example 598],< 500 nM,< 200 nM,–
COc1cc(C(=O)NC[C@](O)(c2cc3c(c(-c4cc(Br)c(F)cc4F)n2)OC[C@]3(C)C(N)=O)C2CC2)cc2cn(C(F)F)nc12 [Example 1097],< 500 nM,–,< 200 nM
COc1cc(C(=O)NC[C@](O)(c2cc3c(c(-c4cnc(C(F)(F)F)s4)n2)OC[C@]3(C)C(N)=O)C(F)(F)F)cc2cn(C3CC3)nc12 [Example 950],> 500 nM,–,< 200 nM
COc1cc(C(=O)NC[C@](O)(c2cc3c(c(-c4ccc(F)cc4)n2)OC[C@]3(C)C(N)=O)C(F)(F)F)cc2c(F)n(C3CC3)nc12 [Example 649],> 500 nM,< 200 nM,–
Cc1cnc2c(OCC(F)F)cc(C(=O)NC[C@](O)(c3cc4c(c(-c5ccc(F)c(Cl)c5)n3)OC[C@]4(C)C(N)=O)C3CC3)cc2c1 [Example 499],< 500 nM,< 200 nM,–
COc1cc(C(=O)NC[C@](O)(c2nc(-c3cc(Cl)c(F)cc3F)c3c(c2F)[C@@](C)(C(N)=O)CO3)C2CC2)cc2cn(C3CC3)nc12 [Example 862],< 500 nM,–,< 200 nM
Cc1nc2c(OC3CC3)cc(C(=O)NC[C@](O)(c3cc4c(c(-c5ccc(F)cc5)n3)OC[C@]4(C)C(N)=O)C(F)(F)F)cc2cc1Cl [Example 885],< 500 nM,–,< 200 nM
CNC(=O)[C@@]1(C)COc2c1cc([C@@](O)(CNC(=O)c1cc(OC)c3nn(C4CC4)cc3c1)C(F)(F)F)nc2-c1ccc(F)cc1 [Example 1190],< 500 nM,–,< 200 nM
COc1cc(C(=O)NC[C@](O)(c2cc3c(c(-c4ccc(F)c(F)c4F)n2)OC[C@]3(C)C(N)=O)C2CC2)cc2cn(C(F)F)nc12 [Example 528],< 500 nM,< 200 nM,–

SMILES,EC50 [1],"EC50 [2, 3]","EC50 [2, 4]"
COc1cc(C(=O)NC[C@](O)(c2cc3c(c(-c4ccc(F)c(Cl)c4)n2)OC[C@@]3(C(N)=O)C(F)F)C(F)(F)F)cc2sc(C)nc12 [Example 1019],< 500 nM,–,< 200 nM
COc1cc(C(=O)NC[C@](O)(c2cc3c(c(-c4ccc(F)c(F)c4F)n2)OC[C@]3(C)C(N)=O)C2(F)CC2)cc2cn(C3(F)CC3)nc12 [Example 743],< 500 nM,< 200 nM,–
C[C@]1(C(N)=O)COc2c1cc([C@@](O)(CNC(=O)c1cc(Cl)c3nn(C4CC4)cc3c1)C1CC1)nc2-c1c(F)cc(Cl)cc1F [Example 1158],< 500 nM,–,< 200 nM
COc1cc(C(=O)NC[C@](O)(c2cc3c(c(-c4ccc5cc[nH]c5c4)n2)OC[C@]3(C)C(N)=O)C(F)(F)F)cc2cn(C3CC3)nc12 [Example 970],> 500 nM,–,> 200 nM
COc1cc(C(=O)NC[C@](O)(c2cc3c(c(-c4ccc(F)cc4)n2)OC[C@]3(C)C(=O)NCC(C)(C)O)C(F)(F)F)cc2cn(C3CC3)nc12 [Example 1170],> 500 nM,–,< 200 nM
COc1cc(C(=O)NC[C@](O)(c2cc3c(c(-c4cc(F)c(F)cc4F)n2)OC[C@]3(C)C(N)=O)C2CC2)cc2cc(Cl)c(C)nc12 [Example 1151],< 500 nM,–,< 200 nM
COc1cc(C(=O)NC[C@](O)(c2cc3c(c(-c4ccc5c(c4)OC(F)(F)O5)n2)OC[C@]3(C)C(N)=O)C(F)(F)F)cc2cn(C3(F)CC3)nc12 [Example 837],< 500 nM,–,< 200 nM
Cc1cnc2c(Cl)cc(C(=O)NC[C@](O)(c3cc4c(c(-c5ccc(F)cc5)n3)OC[C@]4(C)C(N)=O)C3(F)CC3)cc2c1 [Example 738],< 500 nM,< 200 nM,–
C[C@]1(C(N)=O)COc2c1cc([C@@](O)(CNC(=O)c1cc(Cl)c3nn(C4CC4)cc3c1)C1CC1)nc2-c1cccc(Br)c1F [Example 1099],< 500 nM,–,< 200 nM
COc1cc(C(=O)NC[C@](O)(c2cc3c(c(-c4ccc(F)cc4)n2)OC[C@]3(C(N)=O)C2CC2)C(F)(F)F)cc2cc(C3CC3)nn12 [Example 1066],> 500 nM,–,> 200 nM
Cc1cnc2c(OC(F)F)cc(C(=O)NC[C@](O)(c3cc4c(c(-c5cc(Cl)c(F)cc5F)n3)OC[C@]4(C)C(N)=O)C3CC3)cc2c1 [Example 665],< 500 nM,< 200 nM,–
COc1cc(C(=O)NC[C@](O)(c2cc3c(c(-c4ccc(F)c(Cl)c4)n2)OC[C@]3(CF)C(N)=O)C(F)(F)F)cc2cc(Cl)c(C)nc12 [Example 1047],< 500 nM,–,< 200 nM
COc1cc(C(=O)NC[C@](O)(c2cc3c(c(-c4c(F)cc(Cl)cc4F)n2)OC[C@]3(C)C(N)=O)C2CC2)cc2cc(Cl)c(C)nc12 [Example 1159],< 500 nM,–,< 200 nM
C[C@]1(C(N)=O)COc2c1cc([C@@](O)(CNC(=O)c1cc(OC3CC3)c3nc(Cl)ccc3c1)C1CC1)nc2-c1ccc(F)cc1 [Example 1193],> 500 nM,–,< 200 nM
COc1cc(C(=O)NC[C@](O)(c2cc3c(c(-c4ccc(F)cc4Cl)n2)OC[C@]3(C)C(N)=O)C2(F)CC2)cc2cc(Cl)c(C)nc12 [Example 734],< 500 nM,< 200 nM,–
COc1cc(C(=O)NC[C@](O)(c2cc3c(c(-c4cc(F)ccc4Cl)n2)OC[C@]3(C)C(N)=O)C(F)(F)F)cc2cn(C3CC3)nc12 [Example 991],< 500 nM,–,< 200 nM
COc1cc(C(=O)NC[C@](O)(c2cc3c(c(-c4ccc(F)c(F)c4Cl)n2)OC[C@]3(C)C(N)=O)C2(F)CC2)cc2cc(Cl)c(C)nc12 [Example 747],< 500 nM,< 200 nM,–
COc1cc(C(=O)NC[C@](O)(c2cc3c(c(-c4ccc(F)c(Cl)c4)n2)OC[C@@]3(C(N)=O)C(F)F)C2CC2)cc2cc(Cl)c(C)nc12 [Example 1033],< 500 nM,–,< 200 nM
COc1cc(C(=O)NC[C@](O)(c2cc3c(c(-c4ccc(F)c(F)c4F)n2)OC[C@@]3(C(N)=O)C(F)F)C(F)(F)F)cc2cn(C3CC3)nc12 [Example 1039],< 500 nM,–,< 200 nM
COc1ccc(C(=O)NC[C@](O)(c2cc3c(c(-c4ccc(F)cc4)n2)OC[C@]3(C)C(N)=O)C(F)(F)F)c2cc[nH]c12 [Example 693],> 500 nM,< 200 nM,–
Cc1cnc2c(OC(F)(F)F)cc(C(=O)NC[C@](O)(c3cc4c(c(-c5ccc(F)cc5)n3)OC[C@]4(C)C(N)=O)C3CC3)cc2c1 [Example 502],< 500 nM,< 200 nM,–
C[C@]1(C(N)=O)COc2c1cc([C@@](O)(CNC(=O)c1cc(Cl)c3nn(C4CC4)cc3c1)C1CC1)nc2-c1ccc(F)c(Br)c1F [Example 800],< 500 nM,< 200 nM,–
